Counter-ions that a name gives are not always drawn.
Experiments:
testosterone synthesis = experiment: Measurement of in vivo rat testosterone synthesis inhibiting activity (LH-RH stimulated); conditions: 1 mg/kg, oral, fasted male Wistar rats; LH-RH 60 ng/rat i.m. 1 h after drug, blood 1 h thereafter; serum testosterone
Experimental: (2) Measurement of in vivo rat testosterone synthesis inhibiting activity
Carried out in accordance with the procedure described in J. Steroid Biochem., Vol.32, No.6, 781-788 (1989).
Each test drug was orally administered to ten-week-old male Wistar rats under fasting. One hour after the drug administration, LH-RH (60 ng/rat) was administered by intramuscular injection to accelerate testosterone synthesis. One hour thereafter, blood was collected by decapitation, and concentration of testosterone in the thus obtained serum was measured by a radioactive isotope assay to calculate testosterone synthesis inhibiting activity.
The in vivo activity to inhibit synthesis of testosterone in rats measured by the above test method (2) was expressed as a testosterone synthesis inhibition ratio (%) to the control group when each test compound or a control compound was administered in a dose of 1 or 10 mg/kg (Table 2).

rat steroid 17-20 lyase = target: T1, rat steroid 17-20 lyase (Rattus norvegicus, UniProt P11715); experiment: Measurement of rat steroid 17-20 lyase inhibiting activity (rat testicular microsomes); assay type: biochemical, rat (male Wistar); conditions: 1 μM [1,2-3H]-17α-hydroxyprogesterone, NADPH, pH 7.4, 37° C., 60 minutes, read-out: Concentration of drug to inhibit 50% of steroid 17-20 lyase activity (IC50)
T1 construct: A testis was excised from a ten-week-old male Wistar rat, homogenized and then centrifuged to obtain microsomes; from tissue; host or cells: testicular microsomes of ten-week-old male Wistar rats
T1 sequence (P11715 1-507): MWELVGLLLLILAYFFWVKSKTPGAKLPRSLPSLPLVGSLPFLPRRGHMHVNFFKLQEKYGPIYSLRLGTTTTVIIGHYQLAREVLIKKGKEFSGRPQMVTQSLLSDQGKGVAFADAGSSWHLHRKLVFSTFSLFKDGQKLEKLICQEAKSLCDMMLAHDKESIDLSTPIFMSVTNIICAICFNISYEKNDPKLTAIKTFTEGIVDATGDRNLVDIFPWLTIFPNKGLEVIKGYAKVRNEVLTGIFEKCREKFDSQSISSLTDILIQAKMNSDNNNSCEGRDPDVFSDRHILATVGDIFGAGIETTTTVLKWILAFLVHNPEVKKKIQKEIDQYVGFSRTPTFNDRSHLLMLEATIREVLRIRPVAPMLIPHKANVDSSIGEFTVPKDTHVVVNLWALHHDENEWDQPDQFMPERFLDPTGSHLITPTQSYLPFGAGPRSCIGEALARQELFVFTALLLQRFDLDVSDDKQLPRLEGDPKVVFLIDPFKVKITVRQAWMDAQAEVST
Experimental: (1) Measurement of rat steroid 17-20 lyase inhibiting activity
Carried out in accordance with the procedure described in J. Steroid Biochem., Vol.33, No.6, 1191-1195 (1989).
A testis was excised from a ten-week-old male Wistar rat, homogenized and then centrifuged to obtain microsomes. A 50 μg portion of the microsomal protein, 1 μM of [1,2-^3 H]-17α-hydroxyprogesterone (5.55×10^5 dpm) and a test compound were dissolved in 100 μl of 50 mM phosphate buffer (pH 7.4), and the solution was mixed with NADPH solution and incubated at 37° C. for 60 minutes. This was mixed with 400 μl of a mixed solvent of methanol and tetrahydrofuran (2:3) and subjected to centrifugation, and radioactivities of the substrate and products (androstenedione and testosterone) in the resulting supernatant fluid were measured using a high performance liquid chromatography (HPLC) equipped with a radioactive isotope detector to examine activity of the test compound to inhibit steroid 17-20 lyase.
The steroid 17-20 lyase inhibiting activity in rat testicular microsomes was calculated as IC50 value by the method described in the above test method (1), with the results shown in Table 1.

Row | Compound | IC50 (rat steroid 17-20 lyase) [nM] | Testosterone synthesis inhibition ratio (to the control group) (testosterone synthesis) [%]
1 | c1ccc2c(c1)Cc1cc(Cn3ccnc3)ccc1-2 [Example 7, 1-[(9H-Fluoren-2-yl)methyl]-1H-imidazole] |  | 78.4
2 | CC(c1ccc2c(c1)Nc1ccccc1S2)n1ccnc1 (stereo not shown) [Example 10, 2-[1-(1H-Imidazo1-1-yl)ethyl]phenothiazine monooxalate] | 6.9 | 

Continued, in another order:

Row | IC50 (rat steroid 17-20 lyase) [nM] | Compound | Testosterone synthesis inhibition ratio (to the control group) (testosterone synthesis) [%]
3 | 4 | CC(c1ccc2c(c1)Cc1ccccc1-2)n1ccnc1 (stereo not shown) [Example 2, 1-[1-(9H-fluoren-2-yl)ethyl]-1H-imidazole hydrochloride] | 86.3
4 | 5 | CC(C)(c1ccc2c(c1)Cc1ccccc1-2)n1ccnc1 [Example 4, 1-[1-(9H-fluoren-2-yl)-1-methylethyl]-1H-imidazole] | 
5 | 5.7 | CC(c1ccc2c(c1)sc1ccccc12)n1ccnc1 (stereo not shown) [Example 8, 1-[1-(Dibenzothiophen-3-yl)ethyl]-1H-imidazole] | 73.0
